Experimental data published in publication PMC6268726, “Inhibition of 11β-HSD1 by Tetracyclic Triterpenoids from Euphorbia kansui” (Molecules, 2012).

Assays:
[1] = biological target: T1, mouse 11β-HSD1 (Mus musculus, UniProt P50172); test: Inhibition of mouse 11β-HSD1, scintillation proximity assay (SPA) with microsomes from transfected HEK-293 cells; format: biochemical; settings: for IC50: microsomes, NADPH, [3H]cortisone, n = 2; for Mouse HSD2/HSD1: selectivity ratio IC50 mouse 11β-HSD2 / mouse 11β-HSD1
T1 construct: the full-length cDNAs of human or marine 11β-HSD1 and 11β-HSD2 were isolated from the cDNA libraries; made in house; host or cells: HEK-293 (stably transfected, pcDNA3); microsomal fraction
T1 sequence (P50172 whole entry): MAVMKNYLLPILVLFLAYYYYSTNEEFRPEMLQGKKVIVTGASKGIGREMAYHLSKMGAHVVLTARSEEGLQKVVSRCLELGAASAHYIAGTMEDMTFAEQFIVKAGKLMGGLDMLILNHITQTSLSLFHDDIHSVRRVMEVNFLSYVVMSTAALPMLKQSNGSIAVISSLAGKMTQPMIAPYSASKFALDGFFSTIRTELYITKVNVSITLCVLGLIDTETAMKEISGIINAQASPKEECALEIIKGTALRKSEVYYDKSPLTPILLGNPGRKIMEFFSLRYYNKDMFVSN
From the text: (§1) Glucocorticoid hormones play important roles in many biological and physiological processes, including regulation of energy metabolism; inflammatory, immune and stress responses; and cardiovascular homeostasis. The action of glucocorticoid on target tissue is not inevitable dependent on the circulating levels, but is regulated in a tissue-specific manner by the 11β-hydroxysteroid dehydrogenase enzymes (11β-HSD1 and 11β-HSD2), which catalyze the interconversion of active 11-hydroxyglucocorticoids (cortisol in human and corticosterone in rodent) and their respective inert 11-keto forms (cortisone in human and 11-dehyfrocorticosterone in rodent). […] 11β-HSD2 is predominantly expressed in aldosterone target cells such as kidney and colon, where it catalyses the inactivation of glucocorticoids, thereby preventing excessive activation of the mineralocorticoid receptor and sequelae including sodium retention, hypokalemia, and hypertension. We tested the inhibitory effect of compounds on both human and mouse 11β-HSD1 and 11β-HSD2. All tests were done duplicate with glycyrrhizininc acid (human and mouse 11β-HSD1, human 11β-HSD2) and carbenoxolone (mouse 11β-HSD2) as positive control. IC50 (X […] S.D., n = 2) values were calculated by using Prism Version 4 (GraphPad Software, San Diego, CA, USA.).
(§2) Inhibition of compounds on human or mouse 11β-HSD1 and 11β-HSD2 enzymatic activities were determined by the scintillation proxitimity assay (SPA) using microsomes containing 11β-HSD1 or 11β-HSD2 according to the previous studies. Briefly the full-length cDNAs of human or marine 11β-HSD1 and 11β-HSD2 were isolated from the cDNA libraries provided by NIH Mammalian Gene Collection and cloned into pcDNA3 expression vector. HEK-293 cells were transfected with the pcDNA3-dericed expression plasmid and selected by cultivation in the presence of 700 μg/mL of G418. The microsomal fraction overexpressing 11β-HSD1 or 11β-HSD2 was prepared from the HEK-293 cells stable transfected with either 11β-HSD1 or 11β-HSD2 and used as the enzyme source for SPA. Microsomes containing human or mouse 11β-HSD1 was incubated with NADPH and [3H]cortisone, then the product, [3H]cortisol was specifically captured by a monoclonal antibody coupled to protein A-coated SPA beads. The 11β-HSD2 screening was performed by incubating 11β-HSD2 microsomes with [3H]cortisol and NAD^+ and monitoring substrate disappearance. IC50 (X ± S.D., n = 2) values were calculated by using Prism Version 4 (GraphPad Software, San Diego, CA, USA.) with glycyrrhizininc acid and carbenoxolone as positive control.

[2] = biological target: T2, human 11β-HSD2 (Homo sapiens, UniProt P80365); test: Inhibition of human 11β-HSD2, SPA with microsomes from transfected HEK-293 cells; format: biochemical; settings: [3H]cortisol, NAD+, n = 2
T2 construct: the full-length cDNAs of human or marine 11β-HSD1 and 11β-HSD2 were isolated from the cDNA libraries; made in house; host or cells: HEK-293 (stably transfected, pcDNA3); microsomal fraction
T2 sequence (P80365 1-405): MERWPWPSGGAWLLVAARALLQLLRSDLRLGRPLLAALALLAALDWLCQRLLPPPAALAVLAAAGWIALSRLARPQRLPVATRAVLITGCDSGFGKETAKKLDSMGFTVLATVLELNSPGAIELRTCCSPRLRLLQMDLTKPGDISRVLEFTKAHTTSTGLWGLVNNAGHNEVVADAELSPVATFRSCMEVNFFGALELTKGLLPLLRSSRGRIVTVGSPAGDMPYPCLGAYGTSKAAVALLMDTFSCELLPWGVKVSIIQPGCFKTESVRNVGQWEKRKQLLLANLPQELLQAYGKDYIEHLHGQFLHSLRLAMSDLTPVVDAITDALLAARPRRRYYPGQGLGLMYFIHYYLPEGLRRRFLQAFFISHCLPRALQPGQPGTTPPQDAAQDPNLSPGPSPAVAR
From the text: as §1, §2

[3] = biological target: T3, human 11β-HSD1 (Homo sapiens, UniProt P28845); test: Inhibition of human 11β-HSD1, SPA with microsomes from transfected HEK-293 cells; format: biochemical; settings: for IC50: microsomes, NADPH, [3H]cortisone, n = 2; for Human HSD2/HSD1: selectivity ratio IC50 human 11β-HSD2 / human 11β-HSD1
T3 construct: the full-length cDNAs of human or marine 11β-HSD1 and 11β-HSD2 were isolated from the cDNA libraries; made in house; host or cells: HEK-293 (stably transfected, pcDNA3); microsomal fraction
T3 sequence (P28845 whole entry): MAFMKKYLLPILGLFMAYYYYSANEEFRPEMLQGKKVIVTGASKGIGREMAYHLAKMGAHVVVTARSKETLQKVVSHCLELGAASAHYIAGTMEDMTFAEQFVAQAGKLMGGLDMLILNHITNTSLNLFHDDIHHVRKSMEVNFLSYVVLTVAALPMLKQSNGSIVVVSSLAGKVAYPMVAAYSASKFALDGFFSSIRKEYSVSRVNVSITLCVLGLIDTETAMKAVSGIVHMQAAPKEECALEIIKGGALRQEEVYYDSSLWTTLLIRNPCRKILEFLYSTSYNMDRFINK
From the text: as §1, §2

[4] = biological target: T4, mouse 11β-HSD2 (Mus musculus, UniProt P51661); test: Inhibition of mouse 11β-HSD2, SPA with microsomes from transfected HEK-293 cells; format: biochemical; settings: [3H]cortisol, NAD+, n = 2
T4 construct: the full-length cDNAs of human or marine 11β-HSD1 and 11β-HSD2 were isolated from the cDNA libraries; made in house; host or cells: HEK-293 (stably transfected, pcDNA3); microsomal fraction
T4 sequence (P51661 1-386): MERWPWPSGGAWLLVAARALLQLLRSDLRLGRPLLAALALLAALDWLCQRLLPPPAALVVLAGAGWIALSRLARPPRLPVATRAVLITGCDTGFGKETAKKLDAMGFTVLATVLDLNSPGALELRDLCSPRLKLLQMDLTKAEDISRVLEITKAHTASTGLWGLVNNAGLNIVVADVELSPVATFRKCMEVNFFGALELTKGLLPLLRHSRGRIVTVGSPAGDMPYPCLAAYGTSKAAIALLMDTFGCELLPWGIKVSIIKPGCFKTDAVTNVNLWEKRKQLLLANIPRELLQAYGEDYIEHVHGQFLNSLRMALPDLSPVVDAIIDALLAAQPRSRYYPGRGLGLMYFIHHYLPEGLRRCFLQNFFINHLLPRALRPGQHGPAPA
From the text: as §1, §2

Row | SMILES | IC50 [1] [µM] | Mouse HSD2/HSD1 [1] | IC50 [2] [µM] | IC50 [3] [µM] | Human HSD2/HSD1 [3] | IC50 [4] [µM] | melting point [°C]
1 | C=C(CC[C@](C)(O)[C@@H]1CC[C@]2(C)C3CCC4C(C)(C)[C@@H](O)CC[C@]4(C)C3CC[C@@]12C)C(C)C (stereo partly drawn) [Compound 1, Euphane-3β,20-dihydroxy-24-ene] | 0.0784 | >12748 | 8.18 | 0.0349 | 234.6 | > 1000 | –
2 | CC(C)=CCC[C@@H](C)[C@@H]1CC[C@]2(C)C(=O)[C@]3(CC[C@@]12C)[C@@H](O)CC1C(C)(C)[C@@H](O)CC[C@@]13C (stereo partly shown) [Compound 2, Kansuinone] | 1.08 | >928 | 2.63 | 1.11 | 2.35 | > 1000 | –
3 | CC(C)=CCCC(C)C1CCC2(C)C3=C(CCC12C)C1(C)CCC(O)C(C)(C)C1CC3=O (stereo not shown) [Compound 4, Kansenone] | 0.0134 | >74850 | 0.107 | 0.00281 | 38 | > 1000 | –
4 | C[C@H](C/C=C/C(C)(C)O)[C@@H]1CC[C@]2(C)C3=C(CC[C@@]12C)[C@@]1(C)CC[C@H](O)C(C)(C)C1CC3 (stereo partly drawn) [Compound 6, (20R,23E)-Eupha-8,23-diene-3β,25-diol] | 0.295 | >3393 | 0.666 | 0.016 | 41.7 | > 1000 | 132 to 133
5 | CC(C)=CCC[C@@H](C)[C@@H]1CC[C@]2(C)C3=C(CC[C@@]12C)[C@@]1(C)CC[C@H](O)C(C)(C)[C@@H]1CC3 [Compound 3, Euphol] | 0.0805 | >12419 | 0.395 | 0.0161 | 24.6 | > 1000 | –
6 | C=C(C)[C@@H](O)CC[C@@H](C)[C@@H]1CC[C@]2(C)C3=C(CC[C@@]12C)[C@@]1(C)CC[C@H](O)C(C)(C)C1CC3 (stereo partly drawn) [Compound 5, (24R)-Eupha-8,25-diene-3β,24-diol] | 0.0495 | >20218 | 1.69 | 0.0265 | 63.7 | > 1000 | –
